Values after ≈ are worked out from the molar mass of the structure shown. Where two headings read alike, the source gives them in different places.
Assays:
physchem = settings: aqueous with cosolvent or surfactant or cyclodextrin, thermodynamic from solid

SMILES | solubility at 18 h (physchem) [µg/mL] | solubility (Solubility in water; Solubility in water) [µg/mL] | solubility (Solubility in water) [µg/mL] | Solubility in water (Solubility in water) [µg/mL]
C=CC(=O)N1CCC[C@@H](n2nc(-c3ccc(Oc4ccccc4)cc3)c3c(N)ncnc32)C1 [Ibrutinib] | > 300 | 20 (≈ 45.4 µM) | – | –
CC(C)Cc1ccc(C(C)C(=O)O)cc1 (stereo not shown) [Ibuprofen] | < 100 | – | – | –
COc1cc(C(=O)O)ccc1NC(=O)[C@@H]1N[C@@H](CC(C)(C)C)[C@](C#N)(c2ccc(Cl)cc2F)[C@H]1c1cccc(Cl)c1F [Idasanutlin] | > 300 | 1 (≈ 1.62 µM) | – | –
CC(C)NC[C@@H](C(=O)N1CCN(c2ncnc3c2[C@H](C)C[C@H]3O)CC1)c1ccc(Cl)cc1 [Ipatasertib] | > 300 | 50 (≈ 109 µM) | – | –
CO[C@@H](C)Cn1c(=O)n(C)c2cnc3ccc(-c4cncc(C(C)(C)O)c4)cc3c21 [LY3023414] | > 300 | 80 (≈ 197 µM) | – | –
C[C@H]1Oc2cc(cnc2N)-c2c(nn(C)c2C#N)CN(C)C(=O)c2ccc(F)cc21 [Lorlatinib] | > 300 | 100 (≈ 246 µM) | – | –
Nc1ncccc1-c1nc2ccc(-c3ccccc3)nc2n1-c1ccc(C2(N)CCC2)cc1 [Miransertib] | > 300 | – | 60 (≈ 139 µM) | –
Nc1ccccc1NC(=O)c1ccc(CNc2nccc(-c3cccnc3)n2)cc1 [Mocetinostat] | > 300 | 8 (≈ 20.2 µM) | – | –
COc1ccc([C@@H](O)c2cc(-c3ncnc4cc(N5CCOCC5)ccc34)c(F)cc2Cl)nn1 [Nedisertib] | > 300 | 80 (≈ 166 µM) | – | –
CCOc1cc2ncc(C#N)c(Nc3ccc(OCc4ccccn4)c(Cl)c3)c2cc1NC(=O)/C=C/CN(C)C [Neratinib] | > 300 | 6 (≈ 10.8 µM) | – | –
Cc1cn(-c2cc(NC(=O)c3ccc(C)c(Nc4nccc(-c5cccnc5)n4)c3)cc(C(F)(F)F)c2)cn1 [Nilotinib] | > 300 | 2 (≈ 3.78 µM) | – | –
NC(=O)c1cccc2cn(-c3ccc([C@@H]4CCCNC4)cc3)nc12 [Niraparib] | > 300 | 10 (≈ 31.2 µM) | – | –
O=C(c1cc(Cc2n[nH]c(=O)c3ccccc23)ccc1F)N1CCN(C(=O)C2CC2)CC1 [Olaparib] | > 300 | 120 (≈ 276 µM) | – | –
C=CC(=O)Nc1cc(Nc2nccc(-c3cn(C)c4ccccc34)n2)c(OC)cc1N(C)CCN(C)C [Osimertinib] | > 300 | 20 (≈ 40 µM) | – | –
Cc1ccc(Nc2nccc(N(C)c3ccc4c(C)n(C)nc4c3)n2)cc1S(N)(=O)=O [Pazopanib] | > 300 | – | – | 40 (≈ 91.4 µM)
Cc1ccc(C(=O)Nc2ccc(CN3CCN(C)CC3)c(C(F)(F)F)c2)cc1C#Cc1cnc2cccnn12 [Ponatinib] | > 300 | 2 (≈ 3.76 µM) | – | –
Cn1nccc1Nc1nccc(-c2ccn([C@H](CO)c3ccc(Cl)c(F)c3)c(=O)c2)n1 [Ravoxertinib] | > 300 | 4 (≈ 9.07 µM) | – | –
CNC(=O)c1cc(Oc2ccc(NC(=O)Nc3ccc(Cl)c(C(F)(F)F)c3)c(F)c2)ccn1 [Regorafenib] | > 300 | – | – | 1 (≈ 2.07 µM)
CNCc1ccc(-c2[nH]c3cc(F)cc4c3c2CCNC4=O)cc1 [Rucaparib] | > 300 | 10 (≈ 30.9 µM) | – | –
N#CC[C@H](C1CCCC1)n1cc(-c2ncnc3[nH]ccc23)cn1 [Ruxolitinib] | > 300 | – | – | –
CC(C)(C)C[C@@H]1N[C@@H](C(=O)N[C@H]2CC[C@H](O)CC2)[C@H](c2cccc(Cl)c2F)[C@]12C(=O)Nc1cc(Cl)ccc12 [SAR405838] | > 300 | 2 (≈ 3.56 µM) | – | –
Cn1cnc2c(F)c(Nc3ccc(Br)cc3Cl)c(C(=O)NOCCO)cc21 [Selumetinib] | > 300 | 40 (≈ 87.4 µM) | – | –
COc1ncc(-c2nc3c(n2C(C)C)[C@H](c2ccc(Cl)cc2)N(c2cc(Cl)cn(C)c2=O)C3=O)c(OC)n1 [Siremadlin] | > 300 | 1 (≈ 1.8 µM) | – | –
Cn1ncnc1[C@H]1c2n[nH]c(=O)c3cc(F)cc(c23)N[C@@H]1c1ccc(F)cc1 [Talazoparib] | > 300 | 100 (≈ 263 µM) | – | –
CC(C)Nc1cc(-c2c[nH]c(C(=O)N[C@H](CO)c3cccc(Cl)c3)c2)c(Cl)cn1 [Ulixertinib] | > 300 | 4 (≈ 9.23 µM) | – | –
Cn1ncc(Cl)c1-c1cc(C(=O)N[C@H](CN)Cc2ccc(F)c(F)c2)oc1Cl [Uprosertib] | > 300 | 30 (≈ 69.9 µM) | – | –
CCCS(=O)(=O)Nc1ccc(F)c(C(=O)c2c[nH]c3ncc(-c4ccc(Cl)cc4)cc23)c1F [Vemurafenib] | > 300 | 0.3 (≈ 0.612 µM) | – | –

— patent publication US20230330234A1, “HYPERBRANCHED POLYESTER POLYOL DERIVATIVE AS DRUG SOLUBILIZER” (FREIE UNIVERSITÄT BERLIN, priority 2020, published 2023)
